Values quoted from earlier work, collected in publication PMC4621921 (Oncotarget, 2015).
Where two headings read alike, the source gives them in different places.

Columns and labels:
prostate cancer = test system: prostate cancer; set-up: method as in PMID 23169517; conditions: phase 2, prostate cancer
[1] = test system: castration-resistant prostate cancer; set-up: method as in earlier work; conditions: phase 3, castration-resistant prostate cancer; no statistically significant improvement
[2] = set-up: method as in PMID 23169517, PMID 24002501; conditions: clinical studies
[3] = in vivo

Compound: COc1cc2nccc(Oc3ccc(NC(=O)C4(C(=O)Nc5ccc(F)cc5)CC4)cc3)c2cc1OC [cabozantinib]
- evaluable patients with regression in soft tissue lesions (prostate cancer): 72%
- PFS (prostate cancer; versus 5.9 weeks with placebo): 23.9 weeks
- median OS [1]: 11 months
- common AEs [2]: fatigue, decreased appetite, and diarrhea

Compound: COc1cc2c(Oc3ccc(NC(=O)C4(C(=O)Nc5ccc(F)cc5)CC4)cc3F)ccnc2cc1OCCCN1CCOCC1 [foretinib]
- common AEs [3]: fatigue, hypertension, and gastrointestinal toxicities

Compound: C[C@]12C=CC(=O)C=C1CC[C@@H]1[C@@H]2C(=O)C[C@@]2(C)[C@H]1CC[C@]2(O)C(=O)CO [prednisone]
- median OS [1]: 9.8 months
